Reference: patent publication US10815230B2, “Casein kinase 1 delta inhibitor” (ELECTROPHORETICS LIMITED, priority 2015, dated 2020)

What was measured:
Experiment in all cases: KINOMEscan binding assay
Details in all cases: read-out: % Ctrl @ 10000 nM
CDK3 = CDK3 (Homo sapiens, UniProt Q00526)
AKT2 = AKT2 (Homo sapiens, UniProt P31751)
[1] = target: ABL1 (M351T) phosphorylated (Homo sapiens, UniProt P00519, M351T)
ABL2 = ABL2 (Homo sapiens, UniProt P42684)
LZK = target: T1, LZK (Homo sapiens, UniProt O43283)
T1 construct: T7 phage fusion (most assays) or DNA label after HEK293 expression; purchased DiscoveRx (KINOMEscan, LeadHunter Discovery services); host or cells: T7 phage in E. coli (BL21-derived) or HEK293
T1 sequence (O43283 whole entry, the tested form may be a part): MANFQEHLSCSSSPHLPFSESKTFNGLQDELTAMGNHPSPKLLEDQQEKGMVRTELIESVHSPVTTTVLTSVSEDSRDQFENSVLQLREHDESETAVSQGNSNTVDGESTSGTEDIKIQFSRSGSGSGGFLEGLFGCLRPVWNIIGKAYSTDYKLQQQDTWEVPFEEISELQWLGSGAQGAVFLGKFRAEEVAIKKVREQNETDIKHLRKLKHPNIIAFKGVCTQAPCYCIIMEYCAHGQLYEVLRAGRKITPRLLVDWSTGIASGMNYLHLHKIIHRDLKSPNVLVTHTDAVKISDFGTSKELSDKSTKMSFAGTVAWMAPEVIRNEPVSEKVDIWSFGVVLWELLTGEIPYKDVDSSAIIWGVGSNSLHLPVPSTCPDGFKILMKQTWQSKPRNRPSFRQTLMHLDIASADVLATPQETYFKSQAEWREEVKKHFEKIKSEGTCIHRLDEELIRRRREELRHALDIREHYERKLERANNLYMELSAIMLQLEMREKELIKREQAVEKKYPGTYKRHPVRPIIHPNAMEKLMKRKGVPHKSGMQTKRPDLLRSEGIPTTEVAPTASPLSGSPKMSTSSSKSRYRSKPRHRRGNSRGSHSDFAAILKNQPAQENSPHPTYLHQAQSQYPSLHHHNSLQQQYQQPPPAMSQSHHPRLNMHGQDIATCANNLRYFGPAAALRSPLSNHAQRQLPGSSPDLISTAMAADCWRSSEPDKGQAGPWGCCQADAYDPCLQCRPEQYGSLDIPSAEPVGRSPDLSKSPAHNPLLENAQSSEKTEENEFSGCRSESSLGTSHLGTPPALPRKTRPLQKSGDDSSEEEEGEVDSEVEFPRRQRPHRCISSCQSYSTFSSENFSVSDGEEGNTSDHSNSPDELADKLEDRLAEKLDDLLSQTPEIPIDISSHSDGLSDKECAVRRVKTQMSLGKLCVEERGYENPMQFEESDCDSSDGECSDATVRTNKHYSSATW

[2] = target: RPS6KA4 Kin.Dom.1-N-terminal (Homo sapiens, UniProt O75676)
ERBB2 = ERBB2 (Homo sapiens, UniProt P04626)
EGFR (G719C) = EGFR (G719C) (Homo sapiens, UniProt P00533, G719C)
IRAK1 = IRAK1 (Homo sapiens, UniProt P51617)
IRAK1, sequence (P51617 whole entry): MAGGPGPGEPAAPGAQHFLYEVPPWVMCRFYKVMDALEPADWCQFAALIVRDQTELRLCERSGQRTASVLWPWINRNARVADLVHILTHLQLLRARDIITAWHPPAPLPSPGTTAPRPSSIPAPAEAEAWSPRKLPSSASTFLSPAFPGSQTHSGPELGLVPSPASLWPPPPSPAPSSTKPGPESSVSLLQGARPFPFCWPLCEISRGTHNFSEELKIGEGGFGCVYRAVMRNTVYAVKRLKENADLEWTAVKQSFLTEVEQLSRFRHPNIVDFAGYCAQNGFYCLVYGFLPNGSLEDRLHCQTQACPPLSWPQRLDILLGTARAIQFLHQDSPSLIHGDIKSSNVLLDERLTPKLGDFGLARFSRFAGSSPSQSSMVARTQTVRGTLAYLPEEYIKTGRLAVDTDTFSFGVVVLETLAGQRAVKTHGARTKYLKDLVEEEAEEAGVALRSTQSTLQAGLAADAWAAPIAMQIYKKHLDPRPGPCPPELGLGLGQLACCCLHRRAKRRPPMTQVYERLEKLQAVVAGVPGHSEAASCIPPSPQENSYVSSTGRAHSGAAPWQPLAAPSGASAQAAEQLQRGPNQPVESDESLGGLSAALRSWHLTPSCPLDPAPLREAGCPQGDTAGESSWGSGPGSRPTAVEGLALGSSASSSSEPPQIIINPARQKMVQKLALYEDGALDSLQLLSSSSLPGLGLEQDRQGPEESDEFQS

SRPK2 = SRPK2 (Homo sapiens, UniProt P78362)
SRPK2, sequence (P78362 whole entry): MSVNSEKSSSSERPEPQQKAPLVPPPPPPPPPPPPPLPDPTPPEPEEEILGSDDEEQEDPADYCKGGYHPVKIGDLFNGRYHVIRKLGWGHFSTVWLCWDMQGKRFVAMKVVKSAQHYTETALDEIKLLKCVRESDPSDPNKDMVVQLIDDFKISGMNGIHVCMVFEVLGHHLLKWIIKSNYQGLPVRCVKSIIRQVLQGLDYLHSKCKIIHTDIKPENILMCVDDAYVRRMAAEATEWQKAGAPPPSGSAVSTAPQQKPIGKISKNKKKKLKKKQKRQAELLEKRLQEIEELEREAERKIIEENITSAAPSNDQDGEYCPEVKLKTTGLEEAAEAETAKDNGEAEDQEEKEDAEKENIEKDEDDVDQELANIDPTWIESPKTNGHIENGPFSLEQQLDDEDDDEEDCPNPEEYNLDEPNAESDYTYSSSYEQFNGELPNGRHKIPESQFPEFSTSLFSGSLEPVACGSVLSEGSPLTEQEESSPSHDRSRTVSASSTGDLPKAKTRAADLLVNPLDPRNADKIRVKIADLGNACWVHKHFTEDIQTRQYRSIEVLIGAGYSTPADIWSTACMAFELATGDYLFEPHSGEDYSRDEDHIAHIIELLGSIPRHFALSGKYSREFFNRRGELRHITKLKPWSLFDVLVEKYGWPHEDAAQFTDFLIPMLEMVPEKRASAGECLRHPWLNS

ERK1 = ERK1 (Homo sapiens, UniProt P27361)
CAMK2A = CAMK2A (Homo sapiens, UniProt Q9UQM7)
CAMK2A, sequence (Q9UQM7 whole entry): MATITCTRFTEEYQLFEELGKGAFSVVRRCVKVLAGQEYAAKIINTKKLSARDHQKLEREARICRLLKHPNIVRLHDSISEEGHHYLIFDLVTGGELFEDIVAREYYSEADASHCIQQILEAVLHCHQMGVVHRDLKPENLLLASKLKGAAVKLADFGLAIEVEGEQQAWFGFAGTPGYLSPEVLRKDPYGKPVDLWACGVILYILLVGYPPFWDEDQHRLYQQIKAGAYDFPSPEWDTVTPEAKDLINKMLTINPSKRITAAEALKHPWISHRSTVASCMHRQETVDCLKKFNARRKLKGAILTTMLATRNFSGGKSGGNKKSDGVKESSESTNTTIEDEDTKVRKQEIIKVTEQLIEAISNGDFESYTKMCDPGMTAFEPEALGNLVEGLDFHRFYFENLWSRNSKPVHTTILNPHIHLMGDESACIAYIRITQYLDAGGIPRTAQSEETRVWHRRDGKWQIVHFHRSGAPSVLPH

TRPM6 = TRPM6 (Homo sapiens, UniProt Q9BX84)
MEK5 = MEK5 (Homo sapiens, UniProt Q13163)
MEK5, sequence (Q13163 whole entry): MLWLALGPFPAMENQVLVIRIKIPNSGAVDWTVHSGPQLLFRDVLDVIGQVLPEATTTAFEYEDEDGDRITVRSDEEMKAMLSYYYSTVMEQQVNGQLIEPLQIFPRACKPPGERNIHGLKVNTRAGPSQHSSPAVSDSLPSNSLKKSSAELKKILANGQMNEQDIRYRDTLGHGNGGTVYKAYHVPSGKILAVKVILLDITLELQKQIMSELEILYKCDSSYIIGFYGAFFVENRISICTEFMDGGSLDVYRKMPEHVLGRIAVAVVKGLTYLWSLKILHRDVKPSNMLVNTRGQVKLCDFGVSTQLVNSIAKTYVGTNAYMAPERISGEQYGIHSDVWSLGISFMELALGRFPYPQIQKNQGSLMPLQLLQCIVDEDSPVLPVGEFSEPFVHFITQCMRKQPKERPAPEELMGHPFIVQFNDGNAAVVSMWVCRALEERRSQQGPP

AKT3 = AKT3 (Homo sapiens, UniProt Q9Y243)
CSNK1E = CSNK1E (Homo sapiens, UniProt P49674)
DLK = DLK (Homo sapiens, UniProt Q12852)
CLK4 = CLK4 (Homo sapiens, UniProt Q9HAZ1)
PAK2 = PAK2 (Homo sapiens, UniProt Q13177)
TIE1 = TIE1 (Homo sapiens, UniProt P35590)
INSR = INSR (Homo sapiens, UniProt P06213)
GAK = GAK (Homo sapiens, UniProt O14976)
[3] = target: RSK2 Kin.Dom.1-N-terminal (Homo sapiens, UniProt P51812)
RSK2 Kin.Dom.1-N-terminal, sequence (P51812 68-327 limits assumed): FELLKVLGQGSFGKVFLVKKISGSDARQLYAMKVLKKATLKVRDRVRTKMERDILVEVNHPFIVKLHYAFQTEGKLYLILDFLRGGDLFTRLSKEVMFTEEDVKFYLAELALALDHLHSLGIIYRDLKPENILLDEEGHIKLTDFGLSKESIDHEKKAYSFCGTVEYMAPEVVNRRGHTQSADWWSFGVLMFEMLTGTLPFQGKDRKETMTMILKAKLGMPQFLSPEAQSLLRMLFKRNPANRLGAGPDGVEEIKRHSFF

GRK4 = GRK4 (Homo sapiens, UniProt P32298)
[4] = target: JAK1 (JH1domain-catalytic) (Homo sapiens, UniProt P23458)
DRAK2 = DRAK2 (Homo sapiens, UniProt O94768)
MKK7 = MKK7 (Homo sapiens, UniProt O14733)
PIK3CB = PIK3CB (Homo sapiens, UniProt P42338)
PIK3CB, sequence (P42338 whole entry): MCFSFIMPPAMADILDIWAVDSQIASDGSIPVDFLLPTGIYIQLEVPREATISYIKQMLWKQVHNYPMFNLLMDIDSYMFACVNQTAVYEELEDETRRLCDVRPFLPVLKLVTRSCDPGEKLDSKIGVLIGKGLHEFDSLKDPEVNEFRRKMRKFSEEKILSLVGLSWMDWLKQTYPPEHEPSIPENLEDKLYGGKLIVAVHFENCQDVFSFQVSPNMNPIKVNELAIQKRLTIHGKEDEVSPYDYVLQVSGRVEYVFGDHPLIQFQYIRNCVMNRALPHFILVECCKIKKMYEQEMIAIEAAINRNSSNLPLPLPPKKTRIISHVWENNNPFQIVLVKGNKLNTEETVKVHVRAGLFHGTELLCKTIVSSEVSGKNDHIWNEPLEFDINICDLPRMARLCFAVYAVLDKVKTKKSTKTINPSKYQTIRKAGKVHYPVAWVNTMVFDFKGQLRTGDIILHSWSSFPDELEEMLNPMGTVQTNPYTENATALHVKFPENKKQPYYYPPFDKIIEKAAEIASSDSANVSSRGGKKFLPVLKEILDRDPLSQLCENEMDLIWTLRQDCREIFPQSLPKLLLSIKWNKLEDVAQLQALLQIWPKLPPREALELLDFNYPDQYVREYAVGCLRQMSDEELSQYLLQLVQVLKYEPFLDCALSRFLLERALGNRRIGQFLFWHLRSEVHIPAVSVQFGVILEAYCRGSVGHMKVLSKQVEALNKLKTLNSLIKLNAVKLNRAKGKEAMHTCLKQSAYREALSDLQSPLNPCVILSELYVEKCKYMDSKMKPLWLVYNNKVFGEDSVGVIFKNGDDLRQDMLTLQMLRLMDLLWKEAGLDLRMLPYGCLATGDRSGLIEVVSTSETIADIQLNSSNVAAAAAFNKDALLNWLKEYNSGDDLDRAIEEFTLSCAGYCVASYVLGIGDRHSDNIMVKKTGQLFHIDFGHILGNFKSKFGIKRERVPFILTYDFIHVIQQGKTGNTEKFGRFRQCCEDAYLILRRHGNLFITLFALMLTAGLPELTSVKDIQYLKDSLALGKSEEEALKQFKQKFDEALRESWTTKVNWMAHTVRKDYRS

MAP4K5 = target: T2, MAP4K5 (Homo sapiens, UniProt Q9Y4K4)
T2 construct: T7 phage fusion (most assays) or DNA label after HEK293 expression; purchased DiscoveRx (KINOMEscan, LeadHunter Discovery services); host or cells: T7 phage in E. coli (BL21-derived) or HEK293

TRKB = TRKB (Homo sapiens, UniProt Q16620)
p38-delta = p38-delta (Homo sapiens, UniProt O15264)
PAK1 = PAK1 (Homo sapiens, UniProt Q13153)
EGFR (S752-I759del) = EGFR (S752-I759del) (Homo sapiens, UniProt P00533, DEL752-759)
FLT3 (D835Y) = FLT3 (D835Y) (Homo sapiens, UniProt P36888, D835Y)
AURKA = AURKA (Homo sapiens, UniProt O14965)
PDPK1 = PDPK1 (Homo sapiens, UniProt O15530)
CHEK1 = CHEK1 (Homo sapiens, UniProt O14757)
RIPK2 = RIPK2 (Homo sapiens, UniProt O43353)
RIOK2 = RIOK2 (Homo sapiens, UniProt Q9BVS4)
DRAK1 = DRAK1 (Homo sapiens, UniProt Q9UEE5)
MEK3 = MEK3 (Homo sapiens, UniProt P46734)
MEK1 = MEK1 (Homo sapiens, UniProt Q02750)
MEK1, sequence (Q02750 whole entry): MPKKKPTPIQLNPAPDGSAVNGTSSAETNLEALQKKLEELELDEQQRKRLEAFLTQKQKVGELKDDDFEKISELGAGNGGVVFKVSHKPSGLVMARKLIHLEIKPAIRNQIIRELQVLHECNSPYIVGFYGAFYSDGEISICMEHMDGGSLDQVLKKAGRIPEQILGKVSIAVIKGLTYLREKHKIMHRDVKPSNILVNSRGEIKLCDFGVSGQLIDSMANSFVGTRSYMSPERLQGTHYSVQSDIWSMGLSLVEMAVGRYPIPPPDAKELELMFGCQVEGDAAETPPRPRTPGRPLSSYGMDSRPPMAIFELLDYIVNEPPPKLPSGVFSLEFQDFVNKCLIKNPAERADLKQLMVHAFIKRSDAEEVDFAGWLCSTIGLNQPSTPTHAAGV

For `Nc1ncc(-c2nc3ccccc3o2)c(-c2ccncc2)n1` [Comparative Compound 324, 5-(1,3-benzoxazol-2-yl)-4-(pyridine-4-yl)pyrimidin-2-amine], the remaining binding at 10 µM (CDK3) was 98%, the remaining binding at 10 µM (AKT2) was 100% and the remaining binding at 10 µM [1] was 79%. The remaining binding at 10 µM (ABL2) was 85%, the remaining binding at 10 µM (LZK) was 89% and the remaining binding at 10 µM [2] was 100%. It also gave a remaining binding at 10 µM (ERBB2) of 99%, a remaining binding at 10 µM (EGFR (G719C)) of 64% and a remaining binding at 10 µM (IRAK1) of 87%. It also gave a remaining binding at 10 µM (SRPK2) of 100%, a remaining binding at 10 µM (ERK1) of 96% and a remaining binding at 10 µM (CAMK2A) of 99%. For the same compound, the remaining binding at 10 µM (TRPM6) was 53%, the remaining binding at 10 µM (MEK5) was 66% and the remaining binding at 10 µM (AKT3) was 100%. The remaining binding at 10 µM (CSNK1E) was 1.4%, the remaining binding at 10 µM (DLK) was 91% and the remaining binding at 10 µM (CLK4) was 83%. The remaining binding at 10 µM (PAK2) was 92%, the remaining binding at 10 µM (TIE1) was 100% and the remaining binding at 10 µM (INSR) was 100%. For the same compound, the remaining binding at 10 µM (GAK) was 87%, the remaining binding at 10 µM [3] was 80% and the remaining binding at 10 µM (GRK4) was 100%. For the same compound, the remaining binding at 10 µM [4] was 88%, the remaining binding at 10 µM (DRAK2) was 87% and the remaining binding at 10 µM (MKK7) was 100%. For the same compound, the remaining binding at 10 µM (PIK3CB) was 100%, the remaining binding at 10 µM (MAP4K5) was 88% and the remaining binding at 10 µM (TRKB) was 67%. The remaining binding at 10 µM (p38-delta) was 90%, the remaining binding at 10 µM (PAK1) was 75% and the remaining binding at 10 µM (EGFR (S752-I759del)) was 84%. It also gave a remaining binding at 10 µM (FLT3 (D835Y)) of 90%, a remaining binding at 10 µM (AURKA) of 99% and a remaining binding at 10 µM (PDPK1) of 100%. It also gave a remaining binding at 10 µM (CHEK1) of 100%, a remaining binding at 10 µM (RIPK2) of 85% and a remaining binding at 10 µM (RIOK2) of 87%. For the same compound, the remaining binding at 10 µM (DRAK1) was 100%, the remaining binding at 10 µM (MEK3) was 80% and the remaining binding at 10 µM (MEK1) was 97%.
`CNc1c(C(N)=O)c2ccccn2c1C(=O)c1ccc(F)cc1` [Compound A, 2-methyl-amino-3-[(4-fluorophenyl)carbonyl]indolizine-1-carboxamide] was tested, and the remaining binding at 10 µM (CDK3) was 92%, the remaining binding at 10 µM (AKT2) was 98% and the remaining binding at 10 µM [1] was 49%. For the same compound, the remaining binding at 10 µM (ABL2) was 68%, the remaining binding at 10 µM (LZK) was 100% and the remaining binding at 10 µM [2] was 100%. For the same compound, the remaining binding at 10 µM (ERBB2) was 49%, the remaining binding at 10 µM (EGFR (G719C)) was 32% and the remaining binding at 10 µM (IRAK1) was 93%. The remaining binding at 10 µM (SRPK2) was 100%, the remaining binding at 10 µM (ERK1) was 100% and the remaining binding at 10 µM (CAMK2A) was 70%. The remaining binding at 10 µM (TRPM6) was 69%, the remaining binding at 10 µM (MEK5) was 51% and the remaining binding at 10 µM (AKT3) was 100%. The remaining binding at 10 µM (CSNK1E) was 0.1%, the remaining binding at 10 µM (DLK) was 84% and the remaining binding at 10 µM (CLK4) was 76%. The remaining binding at 10 µM (PAK2) was 79%, the remaining binding at 10 µM (TIE1) was 95% and the remaining binding at 10 µM (INSR) was 100%. It also gave a remaining binding at 10 µM (GAK) of 10%, a remaining binding at 10 µM [3] of 59% and a remaining binding at 10 µM (GRK4) of 97%. The remaining binding at 10 µM [4] was 73%, the remaining binding at 10 µM (DRAK2) was 87% and the remaining binding at 10 µM (MKK7) was 100%. The remaining binding at 10 µM (PIK3CB) was 100%, the remaining binding at 10 µM (MAP4K5) was 62% and the remaining binding at 10 µM (TRKB) was 76%. For the same compound, the remaining binding at 10 µM (p38-delta) was 85%, the remaining binding at 10 µM (PAK1) was 71% and the remaining binding at 10 µM (EGFR (S752-I759del)) was 18%. The remaining binding at 10 µM (FLT3 (D835Y)) was 94%, the remaining binding at 10 µM (AURKA) was 91% and the remaining binding at 10 µM (PDPK1) was 92%. It also gave a remaining binding at 10 µM (CHEK1) of 85%, a remaining binding at 10 µM (RIPK2) of 67% and a remaining binding at 10 µM (RIOK2) of 66%. For the same compound, the remaining binding at 10 µM (DRAK1) was 95%, the remaining binding at 10 µM (MEK3) was 60% and the remaining binding at 10 µM (MEK1) was 39%.
